Test results from PubChem BioAssay (NCI).
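Test compounds were applied to cells in 96-well plates for 48 hours at 5 doses. GI50 marks 50% less growth. Definition used: TGI = concentration required for complete inhibition of growth.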

Assays:
Test in all cases: NCI tumour cell line growth inhibition, 48 h
[1] = test system: MDA-MB-435
[2] = test system: RXF 393 renal
[3] = test system: NCI-H460 lung
[4] = test system: OVCAR-8 ovarian
[5] = test system: HCC-2998 colon
[6] = test system: SNB-19 CNS
[7] = test system: SK-OV-3 ovarian
[8] = test system: 786-0 renal
[9] = test system: HOP-92 NSCLC
[10] = test system: SF-539 CNS
[11] = test system: UACC-257 melanoma
[12] = test system: SF-268 CNS
[13] = test system: U251 CNS
[14] = test system: HS 578T breast
[15] = test system: UACC-62 melanoma
[16] = test system: SR leukemia
[17] = test system: DU-145 prostate
[18] = test system: UO-31 renal
[19] = test system: COLO 205 colon
[20] = test system: SK-MEL-2 melanoma
[21] = test system: HCT-15 colon
[22] = test system: CAKI-1 renal
[23] = test system: EKVX NSCLC
[24] = test system: NCI/ADR-RES ovarian
[25] = test system: IGROV1 ovarian
[26] = test system: RPMI-8226 leukemia
[27] = test system: HT29 colon
[28] = test system: K-562 leukemia
[29] = test system: NCI-H226 lung
[30] = test system: SF-295 CNS
[31] = test system: OVCAR-4 ovarian
[32] = test system: SK-MEL-28 melanoma
[33] = test system: NCI-H23 lung
[34] = test system: T-47D breast
[35] = test system: SNB-75 CNS
[36] = test system: A498 renal
[37] = test system: SW-620 colon
[38] = test system: TK-10 renal
[39] = test system: KM12 colon
[40] = test system: MDA-MB-231 breast
[41] = test system: MCF7 breast
[42] = test system: HL-60(TB) leukemia
[43] = test system: PC-3 prostate
[44] = test system: SK-MEL-5 melanoma
[45] = test system: M14 melanoma
[46] = test system: HOP-62 NSCLC
[47] = test system: HCT-116 colon
[48] = test system: LOX IMVI melanoma
[49] = test system: ACHN renal
[50] = test system: MOLT-4 leukemia
[51] = test system: CCRF-CEM leukemia
[52] = test system: NCI-H522 lung
[53] = test system: MALME-3M melanoma
[54] = test system: OVCAR-3 ovarian
[55] = test system: SN12C renal
[56] = test system: A549 NSCLC
[57] = test system: BT-549 breast
[58] = test system: OVCAR-5 ovarian

`CC(=O)Nc1ccc(-c2nc3ccccc3s2)cc1` was tested, and the TGI [1] was > 100000 nM, the TGI [2] was 74400 nM and the TGI [3] was > 100000 nM. For the same compound, the TGI [4] was > 100000 nM, the TGI [5] was > 100000 nM and the TGI [6] was > 100000 nM. For the same compound, the TGI [7] was 59500 nM, the TGI [8] was 64800 nM and the TGI [9] was > 100000 nM. The TGI [10] was 67100 nM, the TGI [11] was > 100000 nM and the TGI [12] was > 100000 nM. For the same compound, the TGI [13] was 92600 nM, the TGI [14] was > 100000 nM and the TGI [15] was > 100000 nM. For the same compound, the TGI [16] was > 100000 nM, the TGI [17] was 40100 nM and the TGI [18] was > 100000 nM. The TGI [19] was > 100000 nM, the TGI [20] was > 100000 nM and the TGI [21] was > 100000 nM. For the same compound, the TGI [22] was 53800 nM, the TGI [23] was > 100000 nM and the TGI [24] was > 100000 nM. For the same compound, the TGI [25] was > 100000 nM, the TGI [26] was > 100000 nM and the TGI [27] was > 100000 nM. The TGI [28] was 77000 nM, the TGI [29] was > 100000 nM and the TGI [30] was > 100000 nM. The TGI [31] was > 100000 nM, the TGI [32] was > 100000 nM and the TGI [33] was > 100000 nM. For the same compound, the TGI [34] was > 100000 nM, the TGI [35] was 90900 nM and the TGI [36] was 38400 nM. The TGI [37] was > 100000 nM, the TGI [38] was > 100000 nM and the TGI [39] was > 100000 nM. For the same compound, the TGI [40] was 96100 nM, the TGI [41] was > 100000 nM and the TGI [42] was > 100000 nM. For the same compound, the TGI [43] was > 100000 nM, the TGI [44] was > 100000 nM and the TGI [45] was > 100000 nM. The TGI [46] was 45800 nM, the TGI [47] was > 100000 nM and the TGI [48] was > 100000 nM. For the same compound, the TGI [49] was 92300 nM, the TGI [50] was > 100000 nM and the TGI [51] was > 100000 nM.

Work on `Cc1ccc(/C=C/c2c(C(=O)/C=C/c3ccc(C(F)(F)F)cc3)c(C)nc3ccccc23)cc1` yielded a GI50 [1] of 1490 nM, a TGI [1] of 2890 nM and a GI50 [2] of 1120 nM. The TGI [2] was 2410 nM, the GI50 [3] was 1530 nM and the TGI [3] was 3220 nM. It also gave a GI50 [4] of 1880 nM, a TGI [4] of 6430 nM and a GI50 [5] of 1480 nM. The TGI [5] was 2810 nM, the GI50 [6] was 1550 nM and the TGI [6] was 2880 nM. It also gave a GI50 [7] of 1800 nM, a TGI [7] of 3600 nM and a GI50 [8] of 1700 nM. For the same compound, the TGI [8] was 3180 nM, the GI50 [9] was 1430 nM and the TGI [9] was 2980 nM. It also gave a GI50 [10] of 1790 nM, a TGI [10] of 3260 nM and a GI50 [11] of 2150 nM. The TGI [11] was 4950 nM, the GI50 [52] was 1330 nM and the TGI [52] was 4350 nM. For the same compound, the GI50 [12] was 1570 nM, the TGI [12] was 3090 nM and the GI50 [13] was 1470 nM. For the same compound, the TGI [13] was 3130 nM, the GI50 [14] was 1660 nM and the TGI [14] was 4630 nM. The GI50 [15] was 1550 nM, the TGI [15] was 3020 nM and the GI50 [16] was 451 nM. It also gave a TGI [16] of 4970 nM, a GI50 [17] of 1560 nM and a TGI [17] of 2900 nM. The GI50 [18] was 1010 nM, the TGI [18] was 2170 nM and the GI50 [19] was 2210 nM. For the same compound, the TGI [19] was 5290 nM, the GI50 [20] was 1830 nM and the TGI [20] was 3920 nM. The GI50 [21] was 890 nM, the TGI [21] was 3490 nM and the GI50 [22] was 1110 nM. The TGI [22] was 2320 nM, the GI50 [53] was 1700 nM and the TGI [53] was 3080 nM. For the same compound, the GI50 [23] was 1530 nM, the TGI [23] was 3360 nM and the GI50 [24] was 2220 nM. The TGI [24] was 5920 nM, the GI50 [25] was 600 nM and the TGI [25] was 2020 nM. It also gave a GI50 [26] of 460 nM, a TGI [26] of 2920 nM and a GI50 [27] of 674 nM. The TGI [27] was 4570 nM, the GI50 [28] was 1550 nM and the TGI [28] was > 100000 nM. It also gave a GI50 [29] of 1500 nM, a TGI [29] of 3030 nM and a GI50 [30] of 1740 nM. It also gave a TGI [30] of 3140 nM, a GI50 [31] of 1610 nM and a TGI [31] of 3370 nM. It also gave a GI50 [32] of 1930 nM, a TGI [32] of 3630 nM and a GI50 [33] of 1290 nM. It also gave a TGI [33] of 3130 nM, a GI50 [54] of 1550 nM and a TGI [54] of 3820 nM. It also gave a GI50 [35] of 1230 nM, a TGI [35] of 2480 nM and a GI50 [55] of 1510 nM. For the same compound, the TGI [55] was 2970 nM, the GI50 [36] was 1770 nM and the TGI [36] was 3240 nM. The GI50 [56] was 2030 nM, the TGI [56] was 4760 nM and the GI50 [37] was 1290 nM. It also gave a TGI [37] of 4380 nM, a GI50 [38] of 2360 nM and a TGI [38] of 3900 nM. The GI50 [39] was 2060 nM, the TGI [39] was 5030 nM and the GI50 [40] was 1650 nM. The TGI [40] was 3430 nM, the GI50 [41] was 557 nM and the TGI [41] was 2300 nM. The GI50 [42] was 1250 nM, the TGI [42] was 3660 nM and the GI50 [43] was 1640 nM. It also gave a TGI [43] of 3680 nM, a GI50 [57] of 1580 nM and a TGI [57] of 3340 nM. The GI50 [44] was 1540 nM, the TGI [44] was 2870 nM and the GI50 [58] was 1840 nM. It also gave a TGI [58] of 4250 nM, a GI50 [46] of 1880 nM and a TGI [46] of 3730 nM. It also gave a GI50 [47] of 496 nM, a TGI [47] of 2090 nM and a GI50 [48] of 1120 nM. For the same compound, the TGI [48] was 2330 nM, the GI50 [49] was 1400 nM and the TGI [49] was 2700 nM. The GI50 [50] was 625 nM, the TGI [50] was > 100000 nM and the GI50 [51] was 411 nM. The TGI [51] was > 100000 nM.

Compound `C[C@H]1[C@H](C)CC[C@]2(C(=O)OCCOCCOCC[P+](c3ccccc3)(c3ccccc3)c3ccccc3)CC[C@]3(C)C(=CC[C@@H]4[C@@]5(C)CC[C@H](OC(=O)C(Cl)Cl)C(C)(C)[C@@H]5CC[C@]43C)[C@H]12` has a GI50 [14] of 202 nM, a TGI [14] of 3200 nM and a GI50 [17] of 301 nM. It also gave a TGI [17] of 941 nM, a GI50 [37] of 234 nM and a TGI [37] of 955 nM. It also gave a GI50 [42] of 161 nM, a TGI [42] of 804 nM and a GI50 [49] of 540 nM. For the same compound, the TGI [49] was 1260 nM, the GI50 [51] was 227 nM and the TGI [51] was 1610 nM.
